Source: patent US20130023553A1, “PEGYLATED OPIOIDS WITH LOW POTENTIAL FOR ABUSE AND SIDE EFFECTS” (Nektar Therapeutics, priority 2010, published 2013)
Where two headings read alike, the source gives them in different places.

Assays:
human mu opioid receptor [1] = target: T1, human mu opioid receptor (Homo sapiens, UniProt P35372); experiment: biochemical; type: binding
T1 construct: expressed in transfected cells; host or cells: CHO cells
Description: Radioligand displacement was measured using scintillation proximity assays (SPA).
Briefly, serial dilutions of the test compounds were placed in a 96-well plate to which were added SPA beads, membrane and radioligand. The assay conditions for each opioid receptor subtype are described in Table 10 below. The plates were incubated for 8 hours-overnight at room temperature, spun at 1000 rpm to pellet the SPA beads, and radioactivity was measured using the TopCount® microplate Scintillation counter. Specific binding at each concentration of test compound was calculated by subtracting the non-specific binding measured in the presence of excess cold ligand. IC50 values were obtained by non-linear regression of specific binding versus concentration curves and Ki values were calculated using Kd values that were experimentally pre-determined for each lot of membrane preparations.

human mu opioid receptor [2] = target: T1, human mu opioid receptor; experiment: cell-based; conditions: for Emax: read-out: % max effect, mu opioid receptor
Description: Studies were conducted in CHO cells heterologously expressing the cloned human mu, kappa or delta opioid receptors. cAMP was measured using a cAMP HiRange homogenous time-resolved fluorescence assay (HTRF Assay), that is based on a competitive immunoassay principle (Cisbio, Cat.#62AM6PEC).
Briefly, suspensions of cells expressing either the mu, kappa or delta opioid receptors were prepared in buffer containing 0.5 mM isobutyl-methyl xanthine (IBMX). […] EC50 values were calculated for each compound from a sigmoidal dose-response plot of concentrations versus maximum response. To determine if the compounds behaved as full or partial agonists in the system, the maximal response at the highest tested concentrations of compounds were compared to that produced by a known full agonist.

[3] = Pharmacokinetics following intravenous (IV) dosing; type: in vivo, Sprague-Dawley rats; parameters: Cmax: unit: ng/mL; conditions: for Vd: read-out: Vss
Description: (§1) There were 3 rats/group. All animals were food fasted overnight. […] The predose sample was collected from the JVC.
(§2) Following the last collection point, the animals were euthanized.

[4] = Pharmacokinetics following oral (PO) dosing; type: in vivo, Sprague-Dawley rats; parameters: Cmax: unit: ng/mL
Description: as §1, §2

[5] = male, Sprague-Dawley, rat, plasma, hydroxycodone series, 1 mg/kg IV, Mean ± SD
[6] = male, Sprague-Dawley, rat, plasma, hydroxycodone series, 1 mg/kg IV, Mean ± SD, read-out: Cmax
[7] = male, Sprague-Dawley, rat, plasma, hydroxycodone series, 1 mg/kg IV, Mean ± SD, read-out: T1/2(z)
[8] = CHO-K1 membranes, [3H]DAMGO 6 nM, read-out: Ki, Mu opioid receptor
[9] = male, Sprague-Dawley, rat, plasma, po, 5 mg/kg
[10] = male, Sprague-Dawley, rat, plasma, hydroxycodone series, 5.0 mg/kg oral, Mean ± SD
[11] = maximal response at the highest tested concentration
[12] = read-out: EC50, mu opioid receptor
[13] = male, Sprague-Dawley, rat, plasma, iv, 1 mg/kg
[14] = male, Sprague-Dawley, rat, plasma, iv, 1 mg/kg, read-out: Cmax
[15] = male, Sprague-Dawley, rat, plasma, iv, 1 mg/kg, read-out: T1/2(2)
[16] = male, Sprague-Dawley, rat, plasma, po, 5 mg/kg, read-out: Cmax
[17] = male, Sprague-Dawley, rat, plasma, po, 5 mg/kg, read-out: T1/2(2)
[18] = male, Sprague-Dawley, rat, plasma, po, 5 mg/kg, read-out: Tmax (converted)
[19] = codeine series, 5 mg/kg oral, Mean ± SD

T1 sequence (P35372 whole entry): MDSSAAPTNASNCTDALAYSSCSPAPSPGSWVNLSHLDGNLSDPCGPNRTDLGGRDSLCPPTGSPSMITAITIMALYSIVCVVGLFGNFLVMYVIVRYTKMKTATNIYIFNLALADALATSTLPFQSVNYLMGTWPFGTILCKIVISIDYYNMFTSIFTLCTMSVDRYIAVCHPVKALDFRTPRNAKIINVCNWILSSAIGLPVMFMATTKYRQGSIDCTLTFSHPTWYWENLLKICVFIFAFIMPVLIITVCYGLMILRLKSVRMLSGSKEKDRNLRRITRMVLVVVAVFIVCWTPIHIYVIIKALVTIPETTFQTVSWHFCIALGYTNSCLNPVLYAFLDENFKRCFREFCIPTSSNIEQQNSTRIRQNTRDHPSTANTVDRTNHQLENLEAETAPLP

Compound: COCCOCCOCCOCCOCCOC1C=CC2C3Cc4ccc(O)c5c4C2(CCN3C)C1O5 (stereo not drawn) [α-6-mPEG5-O-morphine]
- Ki (human mu opioid receptor [1]): 39.4 nM
- EC50 (human mu opioid receptor [2]): 157 nM
- Emax (human mu opioid receptor [2]): 95%

Compound: COCCOCCOC1CCC2(O)C3Cc4ccc(OC)c5c4C2(CCN3C)C1O5 (stereo not drawn) [α-6-mPEG2-O-hydroxycodone, α-6-mPEG2-O-oxycodone]
- AUC [3, 5]: 200 ng·h/mL
- AUC(0-inf) [3, 5]: 203 ng·h/mL
- MRT last [3, 5]: 37 min
- clearance [3, 5]: 83.3 ± 10.8 mL/min/kg
- Cmax [3, 6]: 513 ± 48.8 ng/mL
- half-life [3, 7]: 44.6 ± 1.8 min
- Vd [3, 5]: 3.36 ± 0.298 L/kg
- Ki (human mu opioid receptor [1]; [8]): 632 nM
- bioavailability [4, 9]: 9.4%
- AUC [4, 10]: 98.5 ng·h/mL
- MRT last [4, 10]: 55.4 min
- AUC(0-inf) ([4]; male, Sprague-Dawley, rat, plasma, hydroxycodone series, 5.0 mg/kg oral, Mean ± SD, * n = 2): 97.2 ng·h/mL
- half-life ([4]; male, Sprague-Dawley, rat, plasma, hydroxycodone series, 5.0 mg/kg oral, Mean ± SD, * n = 2, read-out: T1/2(z)): 48.5 ± 12 min
- Cmax ([4]; male, Sprague-Dawley, rat, plasma, hydroxycodone series, 5.0 mg/kg oral, Mean ± SD, read-out: Cmax): 99.4 ± 47.3 ng/mL
- Tmax ([4]; male, Sprague-Dawley, rat, plasma, hydroxycodone series, 5.0 mg/kg oral, median value, read-out: Tmax (converted)): 15 min
- Emax (human mu opioid receptor [2]; [11]): 101%
- EC50 (human mu opioid receptor [2]; [12]): 5010 nM

Compound: COCCOCCOCCOCCOCCOCCOCCOC1C=CC2C3Cc4ccc(O)c5c4C2(CCN3C)C1O5 (stereo not drawn) [α-6-mPEG7-O-morphine]
- Ki (human mu opioid receptor [1]): 56.9 nM
- EC50 (human mu opioid receptor [2]): 508 nM
- Emax (human mu opioid receptor [2]): 90%

Compound: COCCOCCOCCOCCOCCOCCOC1C=CC2C3Cc4ccc(O)c5c4C2(CCN3C)C1O5 (stereo not drawn) [α-6-mPEG6-O-morphine]
- Ki (human mu opioid receptor [1]): 73 nM
- EC50 (human mu opioid receptor [2]): 415 nM
- Emax (human mu opioid receptor [2]): 98%

Compound: COCCOCCOCCOCCOCCOCCOCCOCCOCCOC1CCC2(O)C3Cc4ccc(OC)c5c4C2(CCN3C)C1O5 (stereo not drawn) [α-6-mPEG9-O-hydroxycodone, α-6-mPEG9-O-oxycodone]
- mean t1/2 value, times that of the parent compound ([3]; 1 mg/kg IV): 3 times
- AUC [3, 5]: 277 ng·h/mL
- AUC(0-inf) [3, 5]: 350 ng·h/mL
- MRT last [3, 5]: 52.7 min
- clearance [3, 5]: 48.9 ± 9.41 mL/min/kg
- Cmax [3, 6]: 955 ± 149 ng/mL
- half-life [3, 7]: 143 ± 14.3 min
- Vd [3, 5]: 6.35 ± 0.349 L/kg
- Emax (human mu opioid receptor [2]; [11]): 95%

Compound: COCCOCCOCCOCCOCCOCCOCCOC1C=CC2C3Cc4ccc(OC)c5c4C2(CCN3C)C1O5 (stereo not drawn) [α-6-mPEG7-O-codeine]
- AUC [3, 13]: 212 ng·h/mL
- AUC(0-inf) [3, 13]: 228 ng·h/mL
- MRT last [3, 13]: 50.7 min
- clearance [3, 13]: 73.1 ± 1.73 mL/min/kg
- Cmax [3, 14]: 443 ± 43.3 ng/mL
- half-life [3, 15]: 74.5 ± 5.76 min
- Vd [3, 13]: 5.2 ± 0.596 L/kg
- Ki (human mu opioid receptor [1]; [8]): 9960 nM
- AUC [4, 9]: 285 ng·h/mL
- AUC(0-inf) [4, 9]: 267 ng·h/mL
- MRT last [4, 9]: 171 min
- bioavailability [4, 9]: 26.9%
- Cmax [4, 16]: 76.6 ± 12.8 ng/mL
- half-life [4, 17]: 97.6 min
- Tmax [4, 18]: 120 min
- Emax (human mu opioid receptor [2]; [11]): 75%
- EC50 (human mu opioid receptor [2]; [12]): 44700 nM

Compound: COCCOCCOCCOCCOCCOCCOCCOCCOCCOC1C=CC2C3Cc4ccc(O)c5c4C2(CCN3C)C1O5 (stereo not drawn) [α-6-mPEG9-O-Morphine, α-6-mPEG-O9-morphine]
- Ki (human mu opioid receptor [1]; [8]): 111 nM
- Emax (human mu opioid receptor [2]; [11]): 87%
- EC50 (human mu opioid receptor [2]; [12]): 1060 nM

Compound: COCCOCCOC1C=CC2C3Cc4ccc(O)c5c4C2(CCN3C)C1O5 (stereo not drawn) [α-6-mPEG2-O-morphine]
- Ki (human mu opioid receptor [1]): 22 nM
- EC50 (human mu opioid receptor [2]): 93.3 nM
- Emax (human mu opioid receptor [2]): 91%

Compound: COc1ccc2c3c1O[C@H]1[C@@H](O)C=C[C@H]4[C@@H](C2)N(C)CC[C@@]341 [Codeine, codeine, reference compound]
- AUCall ([3]; codeine series, 1 mg/kg IV): 11000 ± 1600 ng·min/mL
- AUCinf ([3]; codeine series, 1 mg/kg IV): 11400 ± 2070 ng·min/mL
- CL ([3]; codeine series, 1 mg/kg IV): 89.7 ± 15.3 mL/min/kg
- Cmax ([3]; codeine series, 1 mg/kg IV): 469 ± 20.4 ng/mL
- MRTlast ([3]; codeine series, 1 mg/kg IV): 40.2 ± 9.08 min
- Vss ([3]; codeine series, 1 mg/kg IV): 4.14 ± 0.700 L/kg
- AUCall [4, 19]: 328 ± 216 ng·min/mL
- Cmax [4, 19]: 6.24 ± 2.51 ng/mL
- MRTlast [4, 19]: 33.2 ± 12.9 min
- AUCinf ([4]; codeine series, 5 mg/kg oral, Mean ± SD, # n = 1, * n = 2): 431^# min · ng/mL
- Tmax ([4]; codeine series, 5 mg/kg oral, median value): 15.0 min
- F % ([4]; codeine series, oral bioavailability, 5 mg/kg oral vs 1 mg/kg IV): 0.60%

Compound: COc1ccc2c3c1OC1C(O)CCC4(O)C(C2)N(C)CCC314 (stereo not drawn) [Hydroxycodone, α-6-hydroxycodone, reference compound]
- EC50 (human mu opioid receptor [2]; [12]): 3160 nM

Compound: COCCOCCOCCOC1C=CC2C3Cc4ccc(OC)c5c4C2(CCN3C)C1O5 (stereo not drawn) [α-6-mPEG3-O-codeine]
- AUC [3, 13]: 288 ng·h/mL
- AUC(0-inf) [3, 13]: 290 ng·h/mL
- MRT last [3, 13]: 33.8 min
- clearance [3, 13]: 57.7 ± 4.89 mL/min/kg
- Cmax [3, 14]: 732 ± 27.1 ng/mL
- half-life [3, 15]: 39.4 ± 1.49 min
- Vd [3, 13]: 2.07 ± 0.127 L/kg
- Ki (human mu opioid receptor [1]; [8]): 4260 nM
- AUC [4, 9]: 32 ng·h/mL
- AUC(0-inf) [4, 9]: 34.7 ng·h/mL
- MRT last [4, 9]: 71 min
- bioavailability [4, 9]: 2.39%
- Cmax [4, 16]: 25 ± 6.59 ng/mL
- half-life [4, 17]: 125 ± 64.6 min
- Tmax [4, 18]: 15 min
- Emax (human mu opioid receptor [2]; [11]): 91%

Compound: COCCOC1C=CC2C3Cc4ccc(O)c5c4C2(CCN3C)C1O5 (stereo not drawn) [α-6-mPEG1-O-morphine]
- Ki (human mu opioid receptor [1]): 15.7 nM
- EC50 (human mu opioid receptor [2]): 85 nM
- Emax (human mu opioid receptor [2]): 91%

Compound: COCCOCCOCCOCCOCCOC1CCC2(O)C3Cc4ccc(OC)c5c4C2(CCN3C)C1O5 (stereo not drawn) [α-6-mPEG5-O-hydroxycodone, α-6-mPEG5-O-oxycodone]
- AUC [3, 5]: 282 ng·h/mL
- AUC(0-inf) [3, 5]: 295 ng·h/mL
- MRT last [3, 5]: 46.2 min
- clearance [3, 5]: 57 ± 6.07 mL/min/kg
- Cmax [3, 6]: 622 ± 39.7 ng/mL
- half-life [3, 7]: 62.1 ± 3.85 min
- Vd [3, 5]: 3.3 ± 0.184 L/kg
- Ki (human mu opioid receptor [1]; [8]): 1860 nM
- Emax (human mu opioid receptor [2]; [11]): 108%
- EC50 (human mu opioid receptor [2]; [12]): 5040 nM

Compound: COCCOCCOCCOCCOCCOCCOCCOCCOCCOC1C=CC2C3Cc4ccc(OC)c5c4C2(CCN3C)C1O5 (stereo not drawn) [α-6-mPEG9-O-codeine]
- AUC [3, 13]: 297 ng·h/mL
- AUC(0-inf) [3, 13]: 347 ng·h/mL
- MRT last [3, 13]: 57.2 min
- clearance [3, 13]: 48.6 ± 6.74 mL/min/kg
- Cmax [3, 14]: 730 ± 68 ng/mL
- half-life [3, 15]: 109 ± 1.8 min
- Vd [3, 13]: 5.18 ± 0.538 L/kg
- Ki (human mu opioid receptor [1]; [8]): 9980 nM
- AUC [4, 9]: 122 ng·h/mL
- AUC(0-inf) [4, 9]: 114 ng·h/mL
- MRT last [4, 9]: 179 min
- bioavailability [4, 9]: 8.22%
- Cmax [4, 16]: 31.5 ± 8.43 ng/mL
- half-life [4, 17]: 143 min
- Tmax [4, 18]: 15 min
- Emax (human mu opioid receptor [2]; [11]): 80%
- EC50 (human mu opioid receptor [2]; [12]): 48200 nM

Compound: COCCOCCOCCOCCOC1C=CC2C3Cc4ccc(O)c5c4C2(CCN3C)C1O5 (stereo not drawn) [α-6-mPEG4-O-morphine]
- Ki (human mu opioid receptor [1]): 23.1 nM
- EC50 (human mu opioid receptor [2]): 128 nM
- Emax (human mu opioid receptor [2]): 100%
